Data published in patent US20070078263A1, “BIARYL SUBSTITUTED HETEROCYCLE INHIBITORS OF LTA4H FOR TREATING INFLAMMATION” (deCODE Chemistry, Inc., priority 2005, published 2007).
Structures can show the parent of a compound that is named as a salt.

How the values were obtained:
human LTA4 hydrolase = target: T1, human LTA4 hydrolase (Homo sapiens, UniProt P09960); test: In vitro assay testing inhibitory activity against purified recombinant human LTA4 hydrolase (LTB4 formed, LC-MS/MS); type: biochemical; conditions: recombinant human LTA4 hydrolase 200 nM, LTA4 2 μM; read-out: AvgIC50;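 further: 200 nM enzyme preincubated 10 min at room temperature with serial inhibitor dilutions in pH 8.0 Tris buffer with BSA and 10% DMSO, then 2 µM LTA4 added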
T1 construct: A human LTA4 hydrolase full-length cDNA clone (NM 000895) was purchased; His tag (6xHis of vector pDEST17); made in house; host or cells: Escherichia coli BL21-AI
T1 sequence (P09960 1-611): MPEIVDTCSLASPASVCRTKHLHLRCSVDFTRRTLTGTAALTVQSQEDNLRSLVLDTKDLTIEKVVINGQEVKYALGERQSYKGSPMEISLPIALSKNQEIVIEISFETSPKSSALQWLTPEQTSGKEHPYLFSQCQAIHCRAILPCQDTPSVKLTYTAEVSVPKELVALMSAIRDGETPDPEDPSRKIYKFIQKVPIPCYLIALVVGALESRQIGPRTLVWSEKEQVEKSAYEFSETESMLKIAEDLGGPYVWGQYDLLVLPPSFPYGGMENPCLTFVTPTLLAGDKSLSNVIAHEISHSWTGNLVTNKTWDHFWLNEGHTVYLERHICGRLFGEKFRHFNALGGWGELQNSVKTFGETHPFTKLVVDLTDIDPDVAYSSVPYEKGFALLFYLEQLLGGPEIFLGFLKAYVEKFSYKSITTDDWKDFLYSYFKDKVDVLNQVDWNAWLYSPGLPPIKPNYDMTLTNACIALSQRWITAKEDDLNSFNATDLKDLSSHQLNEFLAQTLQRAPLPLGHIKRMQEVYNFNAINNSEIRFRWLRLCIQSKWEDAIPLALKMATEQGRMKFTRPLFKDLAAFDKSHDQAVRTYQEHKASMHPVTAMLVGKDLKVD

human whole blood = test: Ex vivo assay testing inhibitory activity in human whole blood after stimulation with calcium ionophore (LTB4 ELISA); type: cell-based; conditions: Ionomycin 20 μM, read-out: hWBIC50;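 further: heparinized human blood preincubated 15 min at 37 °C with compound, then ionomycin-stimulated for 30 min, LTB4 in plasma supernatant quantified by ELISA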
Description: (2) Ex vivo assay testing inhibitory activity in human whole blood after stimulation with calcium ionophor.
Human blood was collected in heparin-containing Vacutainer tubes. […] Then 4 μl of a series of compound dilutions (in DMSO) were added, followed by a 15 min incubation at 37° C. with gentle shaking. After that, blood samples were stimulated by adding Ionomycin (Calbiochem) to a final concentration of 20 μM. After another incubation at 37° C. for 30 min, samples were centrifuged for 5 min at 1800 g and 4° C. Supernatants were taken and LTB4 concentrations were determined using a commercially available enzyme-linked immunosobentassay (R&D Systems, Minneapolis, Minn.) according to the manufacturer's instructions.

[1] = test system: ionophore-induced LTB4 production; conditions: oral administration; cited from earlier work
[2] = test system: ionophore-induced LTB4 production; conditions: oral administration; cited from earlier work; remark: listed apart in the source
primate model = conditions: eight weeks of treatment; cited from earlier work

| IC50 (human LTA4 hydrolase) [µM] | IC50 (human whole blood) [µM] | Compound | inhibition of ionophore-induced LTB4 production in rat peritoneum in vivo [1] | inhibition of ionophore-induced LTB4 production in mouse blood ex vivo [2] | colitis symptoms in a primate model (primate model) |
| --- | --- | --- | --- | --- | --- |
| < 5 | < 5 | c1ccc(-c2ccc(Cc3ccc(OC[C@H]4CCCN4)cc3)s2)cc1 [Example 159, (R)-2-[4-(5-Phenyl-thiophen-2-ylmethyl)-phenoxymethyl]-pyrrolidine hydrochloride salt] |  |  |  |
| < 5 | < 5 | O=C(O)CCCN1CCC[C@H]1COc1ccc(Cc2ccc(-c3ccsc3)cc2)cc1 [Example 169, 4-{(S)-2-[4-(4-Thiophen-3-yl-benzyl)-phenoxymethyl]-pyrrolidin-1-yl}-butyric acid sodium salt] |  |  |  |
|  |  | CN(CCCOc1ccc(Cc2ccccc2)cc1)CCC(=O)O.Cl [SC57461] | inhibition of ionophore-induced LTB4 production | inhibition of ionophore-induced LTB4 production | significantly improved colitis symptoms |
